Legend:
[1] = system: aromatic L-amino acid decarboxylase (AADC); assay: Expression of DA biosynthesis genes in SHSY-5Y by qPCR; format: cell-based, human; conditions: 12.5 μM, vs vehicle
From the text: (§1) FIGS. 72A-72R show the ability of compound 3 to induce the expression of genes involved in dopamine biosynthesis as well as the neuroprotective effects of compound 3 in cell lines and patient iPCs-derived dopaminergic neurons. […] FIGS. 72F, 72G, 72H, and 72I show representative confocal microscopy images of the compound 3-treated primary rat cortical neurons. […] FIG. 72M-72R show the effects of compound 3 on PD patient iPS cell-derived dopaminergic neurons with the LRRK2-G2019S mutation or corrected mutation (GC). Compound 3 treatment rescues neurite length (M, expressed in […]), number (N) and branching (O) phenotypes. Representative images show staining with TuJ, TH and DAPI (FIGS. 72P, 72Q, and 72R).
(§2) Nurr1 regulates the transcription of DA biosynthesis genes (Kim et al. J. Neurochem. 85:622-634, 2003 and Gil et al. J Neurochem 101:142-150, 2007); however, whether this process is mediated by Nurr1:RXRα heterodimers is unknown.

[2] = system: TH; assay: as above; format: cell-based, human; conditions: 12.5 μM, vs vehicle
From the text: as §1, §2

[3] = system: GCH1; assay: as above; format: cell-based, human; conditions: 12.5 μM, vs vehicle
From the text: as §1, §2

[4] = system: human midbrain-specific iPSc-derived DAergic neurons; assay: Survival of iPSc-derived DAergic neurons exposed to MPP+; format: cell-based; conditions: within 24 hours, compared to vehicle
Protocol: To ascertain the translational therapeutic potential of compound 3, we tested whether human midbrain-specific iPSc-derived DAergic neurons, as indicated by positive staining and qPCR for the neuronal markers MAP2, TH, FoxA2, Lmx1 and En1, can be protected from MPP+ toxicity. Compound 3 was able to double the number of surviving neurons after MPP+ exposure within 24 hours, compared to vehicle (FIGS. 72J-72L). The surviving control neurons had fewer and retreating projections, indicating compromised function (FIG. 72K) while the neurons that had received compound 3 had retained a complex network of projections and contacts (FIG. 72L). In addition, we tested compound 3 in iPSc-derived DAergic neurons from a PD patient carrying the LRRK2-G2019S mutation.

[5] = molecular target: RXRαVP16 heterodimer chimeras with VDRGAL4 (Homo sapiens (Human), UniProt P19793); assay: GAL4/VP16 chimera specificity luciferase assay in SHSY-5Y; format: cell-based; conditions: GAL4-responsive luciferase reporter
Protocol: (§3) Compound 3 specifically activates Nurr1:RXRα heterodimers over other RXR-containing transcription co-activator complexes. Specificity assays fusing DNA sequences of the gal4 DNA binding domain to the nuclear receptor Ligand-Binding-Domain (LDB) and to vp16 were performed as follows: Human SHSY-5Y cells were cotransfected with 20 ng of MH100-tk -luciferase, 10 ng of CMX-bgal, 20 ng of CMX-GAL4-RXRα-LBD and 20 ng of CMX-VP16-NR-LBD, where NR stands for either Nurr1, VDR, PPARγ. CMX-VP16-VDR-LBD and CMX-VP16-PPARγ-LBD were kindly provided by Dr Makishima ([…]). CMX-VP16-Nurr1-LBD was produced by cloning the Nurr1 LBD in the CMX-VP16 vector using KpnI. More specifically, Nurr1-LBD was isolated by PCR from a vector containing the Nurr1 cDNA using a set of primers flanking the Nurr1 LBD sequence and carrying at both sides the KpnI restriction sites, namely Nurr1 Forward […] (SEQ ID NO: 1) and Nurr1 Reverse […] (SEQ ID NO: 2). To exclude the possibility that compound 3 might transactivate RXRγ:Nurr1 heterodimers, CMX-GAL4-RXRγ-LBD was constructed by cloning the RXRγ LBD that was isolated by PCR from a vector containing the RXRγ cDNA (RIKEN, Tokyo, Japan) using the following Forward and Reverse primers carrying KpnI and NheI restriction sites, respectively, namely RXRγ Forward […] (SEQ ID NO: 3) and RXRγ LBD Reverse […] (SEQ ID NO: 4). 17 hours after transfection the compound was added to the medium at the corresponding concentrations and left for another 12 hours. Then the cells were assayed for luciferase activity normalized to galactosidase activity.
(§4) To test off-target effects of compound 3 on complexes aside from Nurr1:RXRα heterodimers, we fused the ligand binding domains of Nurr1, RXRα and a variety of related nuclear receptors to GAL4 DNA-binding domain to create chimeric proteins, while the ligand-binding domain of RXRα was also fused with VP16. These molecular chimeras were co-transfected in pairs with the RXRα:VP16 along with a GAL4-responsive luciferase reporter in SHSY-5Y, which were stimulated with compound 3. […] The above experiments indicate the high degree of selectivity of compound 3 and point to its neuroprotective potential.

[6] = molecular target: Nurr1GAL4:RXRαVP16 heterodimer chimeras (Homo sapiens (Human), UniProt P19793); assay: as above; format: cell-based; conditions: GAL4-responsive luciferase reporter
Protocol: as §3, §4

[7] = molecular target: RXRαVP16 heterodimer chimeras with PPARγGAL4 (Homo sapiens (Human), UniProt P19793); assay: as above; format: cell-based; conditions: GAL4-responsive luciferase reporter
Protocol: as §3, §4

[8] = molecular target: RXRαVP16 heterodimer chimeras with RXRγGAL4 (Homo sapiens (Human), UniProt P19793); assay: as above; format: cell-based; conditions: GAL4-responsive luciferase reporter
Protocol: as §3, §4

[9] = molecular target: RXRαGAL4 homodimer chimeras (Homo sapiens (Human), UniProt P19793); assay: as above; format: cell-based; conditions: GAL4-responsive luciferase reporter
Protocol: as §3, §4

[10] = system: wild type 129/SV mice treated with MPTP; assay: Neuroprotection against MPTP in wild type 129/SV mice; format: in vivo, mouse
Protocol: 20 mg/kg MPTP injections were administered 4 times at the zero day of treatment, spaced 2 hours apart. 7 days after the MPTP injections there was approximately an 80% reduction in striatal projections and 40%-50% dopaminergic neuron death in the SN.

[11] = molecular target: Nurr1:RXRγ heterodimer (Homo sapiens (Human), UniProt P48443); assay: Nurr1:RXRγ luciferase reporter transactivation assay; format: cell-based; conditions: SHSY-5Y
Protocol: Synthesized compounds of the invention and their analogs, shown in Table 1, below, were evaluated for activity in cellular assays. The in vitro transactivation assay determined the capacity of the compounds of the invention to activate the Nurr1:RXR heterodimers. Naive SHSY-5Y cells were transiently co-transfected, using Lipofectamine 2000 (Invitrogen), with a plasmid expressing the human receptor Nurr1, a plasmid expressing the RXR human receptor (RXRα or RXRγ receptor) and a reporter plasmid DR5-TK-Luc. After 24 hours, the culture medium was changed. The test compounds were added (final concentration between 0.5, 2.5 and 12.5 μM) in the culture medium. After incubation overnight, the expression of luciferase was measured (FIG. 1A). Positive control cells were treated with XCT0135908 (1 μM; WO 2005/047268) which induces activation of the Nurr1:RXR heterodimer and results in maximal expression of luciferase. The transcription-activating activities of various compounds of the invention are shown in FIG. 1B, as well as in Table 1, below. […] Furthermore, compound 3 is selective for the Nurr1:RXRα heterodimer over the Nurr1:RXRγ heterodimer (FIG. 1D).

Nurr1:RXRγ heterodimer, sequence (P48443 whole entry, looked up): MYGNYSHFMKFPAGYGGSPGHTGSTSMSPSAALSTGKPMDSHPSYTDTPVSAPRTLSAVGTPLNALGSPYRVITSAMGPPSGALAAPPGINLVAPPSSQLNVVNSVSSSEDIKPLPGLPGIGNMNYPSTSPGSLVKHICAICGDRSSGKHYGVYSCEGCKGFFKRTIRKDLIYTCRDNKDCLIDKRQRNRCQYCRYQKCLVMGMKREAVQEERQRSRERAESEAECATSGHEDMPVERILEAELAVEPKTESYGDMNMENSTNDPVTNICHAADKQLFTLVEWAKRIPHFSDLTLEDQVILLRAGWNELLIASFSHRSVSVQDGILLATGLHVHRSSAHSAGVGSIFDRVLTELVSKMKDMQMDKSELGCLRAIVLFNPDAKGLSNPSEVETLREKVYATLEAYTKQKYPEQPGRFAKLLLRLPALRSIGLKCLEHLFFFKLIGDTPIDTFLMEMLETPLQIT
Nurr1:RXRγ heterodimer, sequence (P43354 whole entry partner, looked up): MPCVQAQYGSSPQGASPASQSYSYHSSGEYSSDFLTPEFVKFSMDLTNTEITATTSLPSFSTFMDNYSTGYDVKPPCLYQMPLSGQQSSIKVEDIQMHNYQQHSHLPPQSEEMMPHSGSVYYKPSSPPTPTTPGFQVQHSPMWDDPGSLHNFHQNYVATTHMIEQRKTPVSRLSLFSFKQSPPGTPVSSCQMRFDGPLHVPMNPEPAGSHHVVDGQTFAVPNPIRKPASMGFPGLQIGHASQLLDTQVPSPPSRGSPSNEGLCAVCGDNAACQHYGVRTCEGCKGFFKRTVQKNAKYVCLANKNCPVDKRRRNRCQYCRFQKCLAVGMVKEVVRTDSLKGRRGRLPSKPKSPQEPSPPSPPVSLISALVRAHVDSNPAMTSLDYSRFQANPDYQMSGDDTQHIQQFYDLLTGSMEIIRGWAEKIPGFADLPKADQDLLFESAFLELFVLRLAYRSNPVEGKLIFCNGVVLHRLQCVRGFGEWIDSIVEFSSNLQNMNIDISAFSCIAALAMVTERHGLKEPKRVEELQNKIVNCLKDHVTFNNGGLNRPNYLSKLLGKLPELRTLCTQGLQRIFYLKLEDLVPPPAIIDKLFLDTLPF
RXRαVP16 heterodimer chimeras with VDRGAL4, sequence (P19793 whole entry, looked up, change not shown, the tested form may be a part): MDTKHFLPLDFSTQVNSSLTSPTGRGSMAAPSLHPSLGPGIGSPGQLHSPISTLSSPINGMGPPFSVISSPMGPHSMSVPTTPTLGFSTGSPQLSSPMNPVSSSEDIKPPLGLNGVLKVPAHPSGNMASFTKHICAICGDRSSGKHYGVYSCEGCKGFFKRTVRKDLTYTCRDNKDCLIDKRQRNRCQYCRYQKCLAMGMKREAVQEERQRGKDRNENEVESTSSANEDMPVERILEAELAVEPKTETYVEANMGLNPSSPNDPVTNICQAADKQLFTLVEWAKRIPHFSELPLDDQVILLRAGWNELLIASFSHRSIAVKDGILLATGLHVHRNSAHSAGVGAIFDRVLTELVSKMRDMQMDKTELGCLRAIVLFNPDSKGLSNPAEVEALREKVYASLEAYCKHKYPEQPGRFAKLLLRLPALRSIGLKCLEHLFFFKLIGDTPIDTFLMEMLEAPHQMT
RXRαVP16 heterodimer chimeras with VDRGAL4, sequence (P11473 whole entry partner, looked up, the tested form may be a part): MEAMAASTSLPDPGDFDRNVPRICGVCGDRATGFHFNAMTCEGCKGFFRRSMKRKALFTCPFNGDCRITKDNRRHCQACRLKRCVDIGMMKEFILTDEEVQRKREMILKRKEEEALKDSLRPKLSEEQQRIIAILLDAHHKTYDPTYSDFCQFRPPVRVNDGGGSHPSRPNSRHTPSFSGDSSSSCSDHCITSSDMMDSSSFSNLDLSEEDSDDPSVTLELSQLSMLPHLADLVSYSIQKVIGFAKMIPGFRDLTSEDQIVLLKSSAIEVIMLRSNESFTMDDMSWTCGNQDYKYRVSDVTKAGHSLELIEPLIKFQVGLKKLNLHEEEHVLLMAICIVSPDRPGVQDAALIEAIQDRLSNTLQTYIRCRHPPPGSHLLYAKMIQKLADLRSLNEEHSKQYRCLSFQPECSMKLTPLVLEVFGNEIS
Nurr1GAL4:RXRαVP16 heterodimer chimeras, sequence (P19793 whole entry, looked up, change not shown, the tested form may be a part): as the sequence (P19793 whole entry, looked up, change not shown, the tested form may be a part) above
Nurr1GAL4:RXRαVP16 heterodimer chimeras, sequence (P43354 whole entry partner, looked up, the tested form may be a part): as the sequence (P43354 whole entry partner, looked up) above
RXRαVP16 heterodimer chimeras with PPARγGAL4, sequence (P19793 whole entry, looked up, change not shown, the tested form may be a part): as the sequence (P19793 whole entry, looked up, change not shown, the tested form may be a part) above
RXRαVP16 heterodimer chimeras with PPARγGAL4, sequence (P37231 whole entry partner, looked up, the tested form may be a part): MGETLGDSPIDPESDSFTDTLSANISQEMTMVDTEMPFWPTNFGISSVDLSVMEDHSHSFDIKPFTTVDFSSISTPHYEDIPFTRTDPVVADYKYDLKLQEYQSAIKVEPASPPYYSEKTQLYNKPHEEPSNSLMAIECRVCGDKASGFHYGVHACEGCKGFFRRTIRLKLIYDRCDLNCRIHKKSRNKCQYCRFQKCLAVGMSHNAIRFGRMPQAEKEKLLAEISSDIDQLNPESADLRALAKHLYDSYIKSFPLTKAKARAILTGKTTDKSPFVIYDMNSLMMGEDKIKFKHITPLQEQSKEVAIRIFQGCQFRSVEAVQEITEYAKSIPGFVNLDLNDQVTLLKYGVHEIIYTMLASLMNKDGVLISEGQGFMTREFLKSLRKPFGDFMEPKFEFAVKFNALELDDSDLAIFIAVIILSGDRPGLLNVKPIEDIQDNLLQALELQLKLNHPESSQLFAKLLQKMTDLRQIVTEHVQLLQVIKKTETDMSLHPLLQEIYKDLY
RXRαVP16 heterodimer chimeras with RXRγGAL4, sequence (P19793 whole entry, looked up, change not shown, the tested form may be a part): as the sequence (P19793 whole entry, looked up, change not shown, the tested form may be a part) above
RXRαVP16 heterodimer chimeras with RXRγGAL4, sequence (P48443 whole entry partner, looked up, the tested form may be a part): as the sequence (P48443 whole entry, looked up) above
RXRαGAL4 homodimer chimeras, sequence (P19793 whole entry, looked up, change not shown, the tested form may be a part): as the sequence (P19793 whole entry, looked up, change not shown, the tested form may be a part) above
RXRαGAL4 homodimer chimeras, sequence (P19793 whole entry, looked up, change not shown, the tested form may be a part): as above

For `C=CCc1c(N(C)c2ccc(C(=O)O)cc2)nc(-c2ccccc2)nc1C(F)(F)F` [Example 3, 4-((5-allyl-2-phenyl-6-(trifluoromethyl)pyrimidin-4-yl)(methyl)amino)benzoic acid], the “increase of AADC expression” value [1] was “about 70%”, the “increase of TH expression” value [2] was “about 90%” and the “increase of GCH1 expression” value [3] was “about 42%”. The “number of surviving neurons after MPP+ exposure” value [4] was “double”, the “activation of VDRGAL4:RXRαVP16 chimeras” value [5] was “failed to activate” and the “activation of Nurr1GAL4:RXRαVP16 heterodimer chimeras” value [6] was “strongly activated”. For the same compound, the “activation of PPARγGAL4:RXRαVP16 chimeras” value [7] was “failed to activate”, the “activation of RXRγGAL4:RXRαVP16 chimeras” value [8] was “failed to activate” and the “activation of RXRαGAL4 homodimer chimeras” value [9] was “failed to activate”. For the same compound, the “neuroprotection against MPTP toxicity” value ([10]; 129sv wt mice) was “equally effective”, the “increase in number of surviving neuronal bodies” value ([10]; wild type 129/SV, MPTP, IP 10 mg/kg every 12 hours for 8 days) was 33.5% and the “activation of Nurr1:RXRγ heterodimers” value [11] was “did not activate”.

From patent publication US10946019B2, “Nurr1:RXR activating compounds for simultaneous treatment of symptoms and pathology of Parkinson's disease” (priority 2015, dated 2021)
